Experiments:
[1] = system: isolated monkey detrusor; experiment: Effects on the tone of the isolated monkey detrusor (Magnus method); settings: isolated cynomolgus monkey detrusor; for EC50: Primates, read-out: EC50, reduction of the tone of the isolated monkey detrusor
Description: (§1) The detrusor of the cynomolgus monkey (both sexes) was isolated and dissected. Tracheal, atrial and urethral dissections were also prepared. Then the effect of (−)-2-[4-(2-{[(1S,2R)-2-hydroxy-2-(4-hydroxyphenyl)-1-methylethyl]amino}ethyl)-2,5-dimethylphenoxy] acetic acid on the tone of the detrusor preparation was tested. Carbachol-induced tonic contractions of the tracheal preparations, the heart rate of the atrial preparations and endothelin-1-induced tonic contractions of the urethral preparations were also investigated using the Magnus method.

[2] = system: PGE2-induced bladder hyperactivity; experiment: Prostaglandin (PG) E2-induced rat overactive bladder model, cystometrogram in conscious rats; format: in vivo; settings: intragastric, 0.1, 1 or 10 mg/kg as free body, 1, 2, 4 hours after administration
Description: Rats were anesthetized with pentobarbital sodium. Each cannula was implanted into the urinary bladder and stomach, tunneled subcutaneously and secured on the back of the neck and closed. Seven days after the cannula implantation, cystometrogram of the freely-moved conscious rats were measured. Saline was continuously instilled into the bladder at a rate of 6 mL/hour, and after the cystometric parameters were stabilized, PGE2 (60 μmol/L)-containing saline was instilled continuously instead of the saline into the bladder. After the stable shortening of the micturition interval was confirmed under the condition, ethyl(−)-2-[4-(2-{[(1S,2R)-2-hydroxy-2-(4-hydroxyphenyl) -1-methylethyl]amino}ethyl)-2,5-dimethylphenoxy] acetate hydrochloride (0 (vehicle), 0.1, 1 or 10 mg/kg as doses of the free body) was administered intragastrically. Cystometric parameters were measured for 4 hours after the administration and were expressed as a percentage to those at the pre-administration (0 hour).

[3] = system: spinal cord injury-induced overactive bladder; experiment: Spinal cord injury-induced overactive bladder model, cystometrogram; format: in vivo, rat; settings: intragastric, 10 mg/kg as free body; 1 hour after administration; FIG. 7
Description: In ether anesthetized rats, spinal transactions were performed at the level of Th9-Th10. Each rat was treated with amikacin 10 mg/body, i.m. for 7 days, and micturition management was done 2 times/day for 2 weeks to prevent over-distension of the bladder. About 6 weeks after the spinal cord operation, rats were anesthetized with pentobarbital sodium and each cannula (PE-50: Nihon Becton Dickinson) was implanted into the urinary bladder and stomach, tunneled subcutaneously, secured on the back of the neck and closed. Seven days after the cannula implantation, cystometrogram was performed. Saline was instilled into the urinary bladder at a rate of 12 mL/hour. The saline instillation was stopped every micturition. After the stable spontaneous small bladder contraction in filling phase was confirmed, ethyl (—)-2-[4-(2-{[(1S,2R)-2-hydroxy-2-(4-hydroxyphenyl)-1-methylethyl]amino}ethyl)-2,5-dimethylphenoxy] acetate hydrochloride (0 (vehicle) or 10 mg/kg as dose of free body) was administered intragastrically. The micturition parameter at 1 hour after the administration of ethyl (−)-2-[4-(2-{[(1S,2R)-2-hydroxy-2-(4-hydroxyphenyl)-1-methylethyl]amino}ethyl)-2,5-dimethylphenoxy] acetate hydrochloride was measured and was expressed as a percentage to that at the pre-administration (0 hour).

[4] = system: lower urinary tract partially obstructed overactive bladder; experiment: Lower urinary tract partially obstructed rat overactive bladder model, cystometrogram; format: in vivo; settings: intragastric
Description: Rats were anesthetized with pentobarbital sodium. After urethra was ligated with a tube (width: 1 mm) by thread, the tube was removed. Six weeks after the lower urinary tract operation, the implanted thread was removed, and each cannula was implanted into the urinary bladder and stomach, tunneled subcutaneously and secured on the back of the neck and closed. The next day, cystometrogram of freely-moved conscious rats were measured. Saline was instilled into the urinary bladder at a rate of 12 mL/hour. The saline instillation was stopped every micturition. After the stable spontaneous small bladder contraction in filling phase was confirmed, ethyl (−)-2-[4-(2-{[(1S,2R)-2-hydroxy-2-(4-hydroxyphenyl)-1-methylethyl]amino}ethyl)-2,5-dimethylphenoxy] acetate hydrochloride (0 (vehicle), 1 or 10 mg/kg as doses of free body) or tolterodine (10 mg/kg) was administered intragastrically. The micturition parameters at 1 hour after the administration of ethyl (−)-2-[4-(2-{[(1S,2R)-2-hydroxy-2-(4-hydroxyphenyl)-1-methylethyl]amino}ethyl)-2,5-dimethylphenoxy] acetate hydrochloride or tolterodine were measured and were expressed as a percentage to that at the pre-administration (0 hour).

[5] = system: isolated trachea; experiment: Carbachol-induced tonic contraction of isolated tracheal preparations (beta 2-AR-stimulated function); design: species or system cynomolgus monkey; settings: for effect on carbachol-induced tonic contraction of the isolated trachea: beta 2-AR-stimulated function
Description: as §1

[6] = system: isolated atria; experiment: Heart rate of isolated atrial preparations (beta1-AR-stimulated function); design: species or system cynomolgus monkey
Description: as §1

[7] = system: isolated urethra; experiment: Endothelin-1-induced tonic contraction of isolated urethral preparations; design: species or system cynomolgus monkey
Description: as §1

CCCOC(C(=O)OC1CCN(C)CC1)(c1ccccc1)c1ccccc1 [propiverine]
relaxation of the isolated monkey detrusor [1]: No significant relaxation

CCOC(=O)COc1cc(C)c(CCN[C@@H](C)[C@H](O)c2ccc(O)cc2)cc1C.Cl [Compound 1, ethyl (−)-2-[4-(2-{[(1S,2R)-2-hydroxy-2-(4-hydroxyphenyl)-1-methylethyl]amino}ethyl)-2,5-dimethyl-phenoxy] acetate hydrochloride]
micturition interval ([2]; FIGS. 1 to 3): prolonged the micturition interval
micturition volume ([2]; FIGS. 4 to 6): increased the micturition volume dose-dependently
frequency of spontaneous small bladder contraction in filling phase [3]: decreased the frequency
amplitude of spontaneous small bladder contractions in filling phase ([4]; 1 or 10 mg/kg as free body, 1 hour after administration, FIG. 8): decreased the amplitude
frequency of spontaneous small bladder contractions in filling phase ([4]; 1 or 10 mg/kg as free body, 1 hour after administration, FIG. 9): decreased
micturition pressure ([4]; 1 or 10 mg/kg as free body, 1 hour after administration, FIG. 10): did not affect the micturition pressure
potency on spontaneous small bladder contractions relative to tolterodine ([4]; tolterodine 10 mg/kg, FIGS. 8 and 9): stronger than that of tolterodine

CCN(CC)CC#CCOC(=O)C(O)(c1ccccc1)C1CCCCC1 (centres unmarked) [oxybutynin]
relaxation of the isolated monkey detrusor [1]: No significant relaxation

Cc1cc(OCC(=O)O)c(C)cc1CCN[C@@H](C)[C@H](O)c1ccc(O)cc1 [(−)-2-[4-(2-{[(1S,2R)-2-hydroxy-2-(4-hydroxyphenyl)-1-methylethyl]amino}ethyl)-2,5-dimethylphenoxy] acetic acid]
EC50 [1]: 820 nM
effect on carbachol-induced tonic contraction of the isolated trachea [5]: less effect
detrusor selectivity compared with the trachea ([5]; detrusor versus trachea): about 1200 times
effect on heart rate of the isolated atria ([6]; beta1-AR-stimulated function): less effect
detrusor selectivity compared with the atria ([6]; detrusor versus atria): ~80 times
effect on endothelin-1-induced tonic contraction of the isolated urethra [7]: no effect

CC(C)NCC(O)c1ccc(O)c(O)c1 (centres unmarked) [isoproterenol, reference compound]
EC50 [1]: 190 nM
effect on carbachol-induced tonic contraction of the isolated trachea [5]: reduced the carbachol-induced tonic contraction
